Here are results for 18 molecules from ChEMBL document CHEMBL4321848 (J Med Chem, 2019).

Assay [1] addresses T1, Nicotinamide N-methyltransferase (Homo sapiens, UniProt P40261).
T1 sequence (P40261 whole entry): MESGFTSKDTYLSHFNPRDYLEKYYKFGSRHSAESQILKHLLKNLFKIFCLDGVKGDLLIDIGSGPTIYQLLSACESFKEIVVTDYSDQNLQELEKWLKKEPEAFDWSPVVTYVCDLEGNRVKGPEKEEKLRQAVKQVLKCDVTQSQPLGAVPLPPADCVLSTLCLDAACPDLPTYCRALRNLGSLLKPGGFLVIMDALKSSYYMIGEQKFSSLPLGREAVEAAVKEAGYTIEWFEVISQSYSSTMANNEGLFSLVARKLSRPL
Briefly: biochemical.

The next assay deals with Adenosylhomocysteinase (Homo sapiens, UniProt P23526). The assay is described as follows: Inhibition of SAHH (unknown origin) using SAH as substrate preincubated for 10 mins followed by susbtrate addition by fluorescence based assay.
Sequence of Adenosylhomocysteinase (P23526 whole entry): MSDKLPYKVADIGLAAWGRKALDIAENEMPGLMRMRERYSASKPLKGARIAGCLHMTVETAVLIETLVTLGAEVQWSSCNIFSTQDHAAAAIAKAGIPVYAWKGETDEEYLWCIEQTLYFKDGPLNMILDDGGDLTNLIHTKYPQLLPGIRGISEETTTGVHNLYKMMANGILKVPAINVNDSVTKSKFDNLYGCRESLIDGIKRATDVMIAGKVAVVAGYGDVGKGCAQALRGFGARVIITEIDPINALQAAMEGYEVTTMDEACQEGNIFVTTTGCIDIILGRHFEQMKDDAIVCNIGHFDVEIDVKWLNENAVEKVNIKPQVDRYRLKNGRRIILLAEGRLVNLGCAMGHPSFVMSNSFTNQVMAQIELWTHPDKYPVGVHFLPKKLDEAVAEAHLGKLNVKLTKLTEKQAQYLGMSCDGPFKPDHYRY
Assay [2] can be described thus: Inhibition of Trypanosoma brucei PRMT7 expressed in Escherichia coli preincubated for 10 mins in presence of AdoMet followed by susbtrate addition by fluorescence based SAHH enzyme coupled assay.
The target of assay [3] is T2, Histone-lysine N-methyltransferase EHMT2 (Homo sapiens, UniProt Q96KQ7).
T2 sequence (Q96KQ7 whole entry): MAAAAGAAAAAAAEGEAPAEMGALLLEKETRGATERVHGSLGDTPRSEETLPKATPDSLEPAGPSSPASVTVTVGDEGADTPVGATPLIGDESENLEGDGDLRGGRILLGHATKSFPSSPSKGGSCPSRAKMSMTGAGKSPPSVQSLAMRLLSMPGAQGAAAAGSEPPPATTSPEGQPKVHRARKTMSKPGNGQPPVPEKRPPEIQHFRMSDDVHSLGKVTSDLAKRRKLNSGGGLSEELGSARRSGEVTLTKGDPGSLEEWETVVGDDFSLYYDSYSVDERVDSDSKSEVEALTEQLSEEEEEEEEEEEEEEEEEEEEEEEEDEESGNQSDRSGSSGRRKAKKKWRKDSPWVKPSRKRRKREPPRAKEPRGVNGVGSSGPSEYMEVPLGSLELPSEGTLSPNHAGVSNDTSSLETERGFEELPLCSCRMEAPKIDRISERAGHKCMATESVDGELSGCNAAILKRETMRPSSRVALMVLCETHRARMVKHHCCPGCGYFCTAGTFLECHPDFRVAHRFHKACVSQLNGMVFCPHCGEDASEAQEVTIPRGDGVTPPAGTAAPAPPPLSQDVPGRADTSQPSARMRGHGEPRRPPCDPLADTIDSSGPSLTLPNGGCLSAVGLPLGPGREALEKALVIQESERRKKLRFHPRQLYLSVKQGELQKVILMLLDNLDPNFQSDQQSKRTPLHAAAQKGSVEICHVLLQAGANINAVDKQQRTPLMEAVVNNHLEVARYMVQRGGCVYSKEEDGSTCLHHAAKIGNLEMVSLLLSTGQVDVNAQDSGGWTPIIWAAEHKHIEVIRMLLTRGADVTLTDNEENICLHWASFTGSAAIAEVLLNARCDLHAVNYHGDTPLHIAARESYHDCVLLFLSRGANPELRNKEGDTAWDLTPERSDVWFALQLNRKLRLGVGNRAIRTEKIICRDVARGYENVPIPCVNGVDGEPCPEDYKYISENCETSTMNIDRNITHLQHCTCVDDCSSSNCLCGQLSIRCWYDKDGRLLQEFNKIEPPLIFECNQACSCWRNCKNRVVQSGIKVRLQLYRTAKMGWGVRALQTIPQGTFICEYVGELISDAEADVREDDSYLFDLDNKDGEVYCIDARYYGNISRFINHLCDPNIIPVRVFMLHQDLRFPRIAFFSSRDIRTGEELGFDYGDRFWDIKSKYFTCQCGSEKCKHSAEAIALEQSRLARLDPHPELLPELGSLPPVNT
Briefly: Inhibition of recombinant human G9a (913 to 1193 residues) expressed in Escherichia coli BL21-CodonPlus(DE3)-RIL using H3-21 peptide preincubated for 10 mins in presence of AdoMet followed by substrate addition by fluorescence based SAHH enzyme coupled assay.

In assay [4] the target is T3, Histone-lysine N-methyltransferase SETD7 (Homo sapiens, UniProt Q8WTS6).
T3 sequence (Q8WTS6 whole entry): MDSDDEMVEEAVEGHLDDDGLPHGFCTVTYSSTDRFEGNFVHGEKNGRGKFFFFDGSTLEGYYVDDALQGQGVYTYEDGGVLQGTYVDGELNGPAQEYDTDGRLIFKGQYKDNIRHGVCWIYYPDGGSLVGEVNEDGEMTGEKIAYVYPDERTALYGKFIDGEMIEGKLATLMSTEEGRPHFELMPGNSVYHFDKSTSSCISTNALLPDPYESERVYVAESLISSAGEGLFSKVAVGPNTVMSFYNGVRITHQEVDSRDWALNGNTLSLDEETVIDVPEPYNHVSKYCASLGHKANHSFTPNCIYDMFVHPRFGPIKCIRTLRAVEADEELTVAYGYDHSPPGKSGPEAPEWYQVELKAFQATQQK
The assay is described as follows: Inhibition of recombinant human His-tagged SETD7 (1 to 366 residues) expressed in Escherichia coli using H3-21 peptide as susbtrate preincubated for 10 mins in presence of AdoMet followed by substrate addition by fluorescence based SAHH enzyme coupled assay.

Assay [5] has as its target T4, N-terminal Xaa-Pro-Lys N-methyltransferase 1 (Homo sapiens, UniProt Q9BV86).
T4 sequence (Q9BV86 whole entry): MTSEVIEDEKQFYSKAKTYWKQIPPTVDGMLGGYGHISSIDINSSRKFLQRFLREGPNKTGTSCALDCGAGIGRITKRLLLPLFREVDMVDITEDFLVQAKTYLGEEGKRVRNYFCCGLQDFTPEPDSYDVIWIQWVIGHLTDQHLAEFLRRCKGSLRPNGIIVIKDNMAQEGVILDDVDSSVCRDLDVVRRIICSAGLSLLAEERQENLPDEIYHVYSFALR
The assay is described as follows: Inhibition of NTMT1 (unknown origin) using GPKRIA peptide as substrate preincubated for 10 mins in presence of AdoMet followed by susbtrate addition by fluorescence based SAHH enzyme coupled assay.

Assay [6] deals with Protein arginine N-methyltransferase 1 (Rattus norvegicus, UniProt Q63009). Briefly: Inhibition of recombinant rat His-tagged PRMT1 expressed in Escherichia coli BL21(DE3) cells using H4-21 peptide as susbtrate preincubated for 10 mins in presence of AdoMet followed by substrate addition by fluorescence based SAHH enzyme coupled assay.
Sequence of Protein arginine N-methyltransferase 1 (Q63009 whole entry): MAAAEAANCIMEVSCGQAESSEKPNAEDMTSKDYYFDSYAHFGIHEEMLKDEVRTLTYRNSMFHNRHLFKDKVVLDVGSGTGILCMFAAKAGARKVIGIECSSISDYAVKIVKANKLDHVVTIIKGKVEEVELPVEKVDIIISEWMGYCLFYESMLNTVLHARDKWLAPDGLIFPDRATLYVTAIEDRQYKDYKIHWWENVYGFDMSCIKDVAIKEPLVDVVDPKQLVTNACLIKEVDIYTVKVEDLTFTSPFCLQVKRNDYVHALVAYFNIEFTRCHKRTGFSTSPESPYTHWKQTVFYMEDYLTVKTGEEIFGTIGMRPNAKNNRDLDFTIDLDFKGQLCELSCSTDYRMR
Assay [7] concerns the target Indolethylamine N-methyltransferase (Homo sapiens, UniProt O95050). The assay is described as follows: Inhibition of human N- terminal His6 tagged human INMT expressed in Escherichia coli BL21-CodonPlus(DE3)-RIL using tryptamine as substrate preincubated for 10 mins in presence of AdoMet followed by substrate addition by fluorescence based SAHH enzyme coupled assay.

The target in assay [8] is T5, Phenylethanolamine N-methyltransferase (Homo sapiens, UniProt P11086).
T5 sequence (P11086 whole entry): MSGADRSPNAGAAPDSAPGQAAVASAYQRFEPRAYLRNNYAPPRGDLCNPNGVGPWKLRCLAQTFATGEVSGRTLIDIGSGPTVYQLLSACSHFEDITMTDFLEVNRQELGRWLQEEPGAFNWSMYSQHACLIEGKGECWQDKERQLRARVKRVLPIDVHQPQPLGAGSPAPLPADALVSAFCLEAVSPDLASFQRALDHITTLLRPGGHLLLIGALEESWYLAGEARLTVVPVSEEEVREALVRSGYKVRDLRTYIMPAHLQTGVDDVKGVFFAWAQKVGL
Briefly: Inhibition of human N-terminal His6 tagged PNMT using norepinephrine as substrate preincubated for 10 mins in presence of AdoMet followed by substrate addition by fluorescence based SAHH enzyme coupled assay.

Sequence of Indolethylamine N-methyltransferase (O95050 whole entry): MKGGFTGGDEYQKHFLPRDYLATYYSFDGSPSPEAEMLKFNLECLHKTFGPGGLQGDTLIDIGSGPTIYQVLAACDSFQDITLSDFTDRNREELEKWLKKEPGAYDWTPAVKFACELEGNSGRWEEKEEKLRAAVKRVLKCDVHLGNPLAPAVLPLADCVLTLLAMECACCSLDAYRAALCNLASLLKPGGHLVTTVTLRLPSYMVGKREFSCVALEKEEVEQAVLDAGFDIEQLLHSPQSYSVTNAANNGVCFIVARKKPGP

One may read the Ki as the dissociation constant of the complex between target and ligand, obtained from inhibition or displacement. A high value points to lower affinity. In assay [1], `Nc1ncnc2c1ncn2[C@@H]1O[C@H](CN(CCc2ccc3ccccc3c2)CC[C@H](N)C(=O)O)[C@@H](O)[C@H]1O` yielded a Ki of 27.3 µM.

`COC(=O)c1cccc(CCCN(CC[C@H](N)C(=O)O)C[C@H]2O[C@@H](n3cnc4c(N)ncnc43)[C@H](O)[C@@H]2O)c1` registered a Ki in assay [1] of 28 µM.

In assay [1], `NC(=O)c1ccccc1` [BENZAMIDE] had an inhibition constant (Ki) above 100 µM.

`NC(=O)c1cccc(CCN(CC[C@H](N)C(=O)O)C[C@H]2O[C@@H](n3cnc4c(N)ncnc43)[C@H](O)[C@@H]2O)c1` showed a Ki in assay [1] of 10 µM.

`NC(=O)c1cccc(CCCCN(CCC[C@H](N)C(=O)O)C[C@H]2O[C@@H](n3cnc4c(N)ncnc43)[C@H](O)[C@@H]2O)c1` returned an inhibitory constant (Ki) in assay [1] of 0.54 µM.

As usually defined, the IC50 is the concentration needed to halve the response being measured. For the molecule `NC(=O)c1cccc(C#CCN(CC[C@H](N)C(=O)O)C[C@H]2O[C@@H](n3cnc4c(N)ncnc43)[C@H](O)[C@@H]2O)c1`, the IC50 was above 3.7 µM against Adenosylhomocysteinase; above 33 µM in assay [2]; above 100 µM in [3]; above 100 µM in assay [4]; above 33 µM in [5]; above 100 µM in assay [6]. In addition, the IC50 in [7] and in assay [8] was above 100 µM each time.

Take `NC(=O)c1cccc(CCCCN(CC[C@H](N)C(=O)O)C[C@H]2O[C@@H](n3cnc4c(N)ncnc43)[C@H](O)[C@@H]2O)c1`: the inhibitory constant (Ki) in assay [1] was 0.84 µM.

In assay [1], `Cc1ccc(C(N)=O)cc1CCCN(CC[C@H](N)C(=O)O)C[C@H]1O[C@@H](n2cnc3c(N)ncnc32)[C@H](O)[C@@H]1O` yielded a Ki of 0.15 µM.

For `Nc1ncnc2c1ncn2[C@@H]1O[C@H](CN(CCCc2ccc3ccccc3c2)CCC[C@H](N)C(=O)O)[C@@H](O)[C@H]1O`, the inhibition constant Ki in assay [1] is 33.3 µM.

In [1], `Nc1ncnc2c1ncn2[C@@H]1O[C@H](CN(CCCc2cccc3ccccc23)CCC[C@H](N)C(=O)O)[C@@H](O)[C@H]1O` gave a Ki of 1.1 µM.

On to `NC(=O)c1cccc(CCCN(CC[C@H](N)C(=O)O)C[C@H]2O[C@@H](n3cnc4c(N)ncnc43)[C@H](O)[C@@H]2O)c1`, for which, in [1], the Ki came to 0.043 µM.

In assay [1], `Cc1ccc(CCCN(CC[C@H](N)C(=O)O)C[C@H]2O[C@@H](n3cnc4c(N)ncnc43)[C@H](O)[C@@H]2O)cc1C(N)=O` showed a Ki of 0.051 µM.

Turning to `COc1ccc(C(N)=O)cc1C#CCN(CC[C@H](N)C(=O)O)C[C@H]1O[C@@H](n2cnc3c(N)ncnc32)[C@H](O)[C@@H]1O`, the Ki in assay [1] was 0.052 µM.

`Nc1ncnc2c1ncn2[C@@H]1O[C@H](CN(CCCc2cccc3ccccc23)CC[C@H](N)C(=O)O)[C@@H](O)[C@H]1O`: in [1], the Ki came out at 11.8 µM.

With `NC(=O)c1cccc(C#CCNC[C@H]2O[C@@H](n3cnc4c(N)ncnc43)[C@H](O)[C@@H]2O)c1`, in [1], the affinity, expressed as Ki, was 3 µM.

`Nc1ncnc2c1ncn2[C@@H]1O[C@H](CN(CCCc2ccc3ccccc3c2)CC[C@H](N)C(=O)O)[C@@H](O)[C@H]1O` registered a Ki in assay [1] of 4 µM.

In assay [1], `NC(=O)c1cccc(CCCN(CCC[C@H](N)C(=O)O)C[C@H]2O[C@@H](n3cnc4c(N)ncnc43)[C@H](O)[C@@H]2O)c1` came in with a Ki of 3 µM.

In [1], `Cc1ccc(C#CCN(CC[C@H](N)C(=O)O)C[C@H]2O[C@@H](n3cnc4c(N)ncnc43)[C@H](O)[C@@H]2O)cc1C(N)=O` had a Ki of 0.016 µM.
